# Laboratory results published in article PMC2852148 (Biochemistry, 2010).
# Several values for one entry are separate records, joined by “and”; a condition that tells them apart may be missing. Identical values can stand only once. Entries after “also recorded” stand apart in the source; their conditions may differ.
# Key:
# [1] = target: T1, RDL receptors (Drosophila melanogaster, UniProt P25123); assay: Two-electrode voltage clamp of RDL receptors expressed in Xenopus oocytes; type: cell-based; conditions: for EC50: EC50, RDL receptors in Xenopus oocytes; for nH (Hill coefficient) / Imax/Imax(GABA) / pEC50: means ± SEM; for Imax/Imax(GABA): maximal current relative to maximal GABA-evoked response; for pEC50: -60 mV, N/R = no response
# T1 sequence (P25123 45-606): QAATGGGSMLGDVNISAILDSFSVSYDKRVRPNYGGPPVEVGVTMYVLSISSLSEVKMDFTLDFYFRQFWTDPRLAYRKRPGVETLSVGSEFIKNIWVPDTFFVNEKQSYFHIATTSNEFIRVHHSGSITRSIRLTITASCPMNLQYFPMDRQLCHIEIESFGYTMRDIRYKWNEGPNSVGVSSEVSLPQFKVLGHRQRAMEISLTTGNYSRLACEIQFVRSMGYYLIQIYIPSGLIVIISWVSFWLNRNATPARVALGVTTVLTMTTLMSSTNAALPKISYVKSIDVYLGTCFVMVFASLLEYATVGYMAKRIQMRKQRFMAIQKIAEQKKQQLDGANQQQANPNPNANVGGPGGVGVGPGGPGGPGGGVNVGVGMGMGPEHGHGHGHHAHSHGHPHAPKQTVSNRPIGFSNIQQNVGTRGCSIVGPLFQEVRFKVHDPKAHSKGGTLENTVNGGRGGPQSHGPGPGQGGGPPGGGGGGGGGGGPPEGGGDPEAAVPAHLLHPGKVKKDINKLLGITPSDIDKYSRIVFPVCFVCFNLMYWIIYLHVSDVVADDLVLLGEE
# [2] = target: T1, RDL receptors; conditions: background statement; cited from earlier work
# [3] = RDL receptors in Xenopus oocytes
# [4] = applied at concentrations up to 10 mM
Compound,EC50 ([1]; Table 1) [µM],"nH (Hill coefficient) [1, 3]",Imax/Imax(GABA) [1],"pEC50 [1, 3]",further results
"NCC=CC(=O)O [TACA, 4-amino-2-butenoic acid]",36.7,1.8 ± 0.2,1.0 ± 0.02,–,–
picrotoxin,–,–,–,–,inhibition of homomeric RDL receptors (in words) [2]: inhibited
"Oc1noc2c1CCNC2 [THIP, 4,5,6,7-tetrahydroisoxazolo[5,4-c]pyridin-3-ol]",226,2.4 ± 1.0,0.57 ± 0.06,–,"EC50 [1]: 220 µM; agonist type at RDL receptors [1, 3]: partial agonist"
O=C(O)C1=CCNCC1 [isoguvacine],64.9,1.9 ± 0.2,0.97 ± 0.03,–,–
NCCC(=O)O [β-alanine],807,2.0 ± 0.3,1.0 ± 0.03,–,EC50 [1]: 800 µM and ~1000 µM
NCC(=O)O [glycine],–,–,–,N/R,"activation of RDL receptors (in words) [1, 3]: inactive; activation of RDL receptors (in words) [1, 4]: failed to activate"
CN1CCc2cc3c(cc2[C@H]1[C@@H]1OC(=O)c2c1ccc1c2OCO1)OCO3 [bicuculline],–,–,–,–,inhibition of homomeric RDL receptors (in words) [2]: not inhibited
NCCc1ccc(O)cc1 [tyramine],–,–,–,N/R,"activation of RDL receptors (in words) [1, 3]: inactive; activation of RDL receptors (in words) [1, 4]: failed to activate"
NCc1cc(=O)[nH]o1 [muscimol],9.04,2.2 ± 0.6,0.87 ± 0.03,–,"agonist type at RDL receptors [1, 3]: full agonist"
NCCS(=O)(=O)O [taurine],> 10000,–,–,–,EC50 [1]: > 10000 µM
"NCCCC(=O)O [GABA, γ-aminobutyric acid]",–,1.8 ± 0.2,–,–,–
"Nc1ccc(C(=O)O)cc1 [PABA, p-aminobenzoic acid]",–,–,–,N/R,"activation of RDL receptors (in words) [1, 4]: failed to activate"
"NCCCP(=O)(O)O [3-APP, 3-aminopropylphosphonic acid]",–,–,–,N/R,"activation of RDL receptors (in words) [1, 3]: no activating effect; also recorded: inactive"
"NCCCCC(=O)O [5-AV, 5-aminovaleric acid]",1120,1.0 ± 0.3,0.85 ± 0.1,–,EC50 [1]: 1100 µM and ~1000 µM
"NCCCCO [4-AB, 4-amino-1-butanol]",–,–,–,N/R,"activation of RDL receptors (in words) [1, 3]: inactive; activation of RDL receptors (in words) [1, 4]: failed to activate"
